What was measured:
[1] = tested on: MOG-induced experimental autoimmune encephalomyelitis (EAE); assay: First MOG EAE protocol (murine multiple sclerosis model); assay type: in vivo, C57BL/6 mice; settings: first 28-day study; MGBG 30 mpk BID, fingolimod 3 mpk QD; throughout/duration of experiment
Description: An experimental murine model of multiple sclerosis employing a myelin oligodendrocyte glycoprotein (MOG) peptide to induce experimental autoimmune encephalomyelitis (EAE) was employed to determine the efficacy of MGBG in preventing and treating that disease. Because of its many similarities to MS, EAE is commonly used to study pathogenesis of autoimmunity, CNS inflammation, demyelination, cell trafficking, and tolerance induction. EAE is characterized by paralysis (in some models the paralysis is remitting-relapsing), CNS inflammation and demyelination. EAE is mediated primarily by dendritic cells, myelin-specific T cells (e.g. Th1 and Th17), and M1 macrophages. B cells may also play a role in some models of EAE. Body weight also tracks disease progression. EAE is induced in C57BL/6 mice by immunization with MOG35-55 or MOG1-125 in CFA emulsion followed by administration of pertussis toxin (PTX) in PBS. The emulsion provides antigen which initiates expansion and differentiation of MOG-specific autoimmune T cells. PTX enhances EAE development by providing additional adjuvant and facilitating entrance of autoimmune T cells into the CNS.
Chronic EAE develops in C57BL/6 mice after immunization with an emulsion of MOG35-55/CFA or MOG1-125/CFA followed by injection of pertussis toxin. This model is used to test the potential of compounds to prevent or mitigate EAE disease. It can be run with the compound dosed from the time of immunization (prophylactic treatment), or with the aim of reversing the course of disease and facilitating recovery by dosing the compound from the time of EAE onset (therapeutic treatment). The model uses female C57BL/6 mice of age 10 to 14 weeks at the start of the study. Typically, EAE develops 8-18 days after immunization. EAE development is usually followed for 4 weeks (28 days) after immunization.
In prophylactic studies, treatment begins before disease onset, at the time of immunization and group assignment. Mice are assigned to treatment groups in a balanced manner to achieve groups with similar distributions of body weights. Prophylactic studies assess if treatment will affect the course of disease both before and after the first clinical signs of EAE. To compensate for the stress of treatment in prophylactic treatment studies and achieve the target disease severity, EAE may be induced with a higher dose of pertussis toxin than used in therapeutic studies. The dose of pertussis toxin is based on expected stress due to dosing (route, frequency, and formulation of vehicle).
Clinically, EAE progression is scored on a scale of 0 to 5, wherein each score represents the following clinical observations:
Inflammatory foci of approximately 20 cells were counted in each H&E stained section. When inflammatory infiltrates consisted of more than 20 cells, an estimate was made of how many foci of 20 cells were present.
The demyelination score represents an estimate of demyelinated area for each section as follows:
Unless otherwise noted, statistical analysis was performed as follows: disease incidence compared using chi-square test; mean day of EAE onset, change in body weight, and number of apoptotic cells compared using 2-tailed Student's t-test; median day of EAE onset compared using Wilcoxon's survival test; mean maximum score (MMS), end score, and demyelination scores (LFB and H&E) compared using Wilcoxon's non-parametric test.
Ten week old female C57BL/6 mice weighing 18-23 g (Taconic Farms) were divided into four groups: mock immunized (n=3) and three MOG-immunized groups receiving MGBG at 30 mpk BID (as the di-HCl monohydrate with a correction factor of 1.49), fingolimod (FTY720) at 3 mpk QD with a second mock vehicle dose, or 0.9% saline vehicle BID (n=12 each). […]

[2] = tested on: PGE2 production in carrageenan air pouch; assay: Carrageenan air pouch model; assay type: in vivo, Lewis rats; settings: rat pouch fluid, 3 or 24 hours post-carrageenan; naproxen 10 mg/kg, dexamethasone 1 mg/kg
Description: Injection of air subcutaneously will induce the formation of a connective tissue cavity lined with cells that resemble and function like a synovial lining. This method is commonly known as the Air Pouch Model and is a useful animal model of inflammation that can be generated in a relatively short period of time. The air pouch may be created by subcutaneous (SQ) injection of a volume of sterile air in the dorsal neck region. The model may be used to test the efficacy and potency of compounds such as polyamine analogues and polyamine biosynthesis inhibitors such as MGBG in reducing various cellular and biochemical indicators of inflammation when administered as an oral (PO) gavage administration. Healthy Male Lewis rats (Charles River Laboratories, Wilmington, Mass.) weighing between 175-200 g were used. […] A correction factor of 1.49 was used to account for the dihydrochloride salt/monohydrate form of MGBG. […] Air pouches were formed on the dorsum of the rats during the last 4 days of MGBG or vehicle administration prior to carrageenan injection. Briefly, rats were anesthetized with isoflurane, during which dorsal hair was removed and 20 mL of sterile air was injected subcutaneously into the intrascapular region. Pouches were allowed to develop for the next 4 days, with re-inflation (to maintain pouch volume) of pouches 1 day prior to carrageenan injection. One hour prior to carrageenan injection, animals were given their last dose of drug (MGBG, vehicle, naproxen, or dexamethasone). A 1% suspension of carrageenan (2 mL; FMC BioPolyer, Philadelphia, Pa.) suspended in saline was injected into the pouch cavity. At either 3 hours or 24 hours post-carrageenan injection, rats were euthanized by CO2 asphyxiation and 2.5 mL of PBS (Sigma Chemical, St. Louis, Mo.) was injected directly into the pouch. The pouch was opened with surgical scissors and the pouch fluid was collected using a transfer pipette. One aliquot was collected for measurement of total cell count with differential, and the other aliquot for PGE2 determination. […]

Row | Compound | mean clinical score (scale 0 to 5) [1] | production of PGE2 (inflammatory and basal levels) [2]
1 | CCCCCCCCc1ccc(CCC(N)(CO)CO)cc1 [fingolimod] | 0 | –
2 | COc1ccc2cc([C@H](C)C(=O)O)ccc2c1 [naproxen] | – | inhibited production of both inflammatory and basal levels

Source: patent publication US10085955B2, “Methods and compositions for treatment of demyelinating diseases” (Pathologica LLC, priority 2013, dated 2018)
